Reference: US12180178B2, “Heteroaryl azole compound and pest control agent” (NIPPON SODA CO., LTD., priority 2018, dated 2024)
Read-outs that look alike come from different tables or passages of the source.

Tests used:
Format in all cases: in vivo
Mythimna separata = assay: Test of Efficacy on Mythimna separata (test feed); details: 1 μl of emulsion (I) (5% active ingredient) in 0.8 g artificial feed; second instar larvae; 25° C.; fifth day
Description: 5 parts of the heteroaryl azole compound of the present invention, 93.6 parts of dimethylformamide, and 1.4 parts of polyoxyethylene alkyl aryl ether were mixed and dissolved to prepare emulsion (I) containing 5% of the active ingredient. For a control, 98.5 parts of dimethylformamide and 1.5 parts of polyoxyethylene alkyl aryl ether were mixed and dissolved to prepare emulsion (II). An insecticidal rate was calculated according to the following expression: Insecticidal rate (%)=(The number of dead insects/The number of tested insects)×100 0.8 g of commercially available artificial feed (Insecta LFS, manufactured by Nosan Corp.) and 1 μl of the emulsion (I) were well mixed to obtain test feed. A plastic test container (capacity: 1.4 ml) was packed with 0.2 g of the test feed per treatment plot. Then, two second instar larvae of Mythimna separata were inoculated to each treatment plot. A plastic lid was put on the test container so as to prevent escape of the second instar larvae of Mythimna separata. The container was placed in a thermostat chamber of 25° C. On the fifth day, the insecticidal rate and the food intake were examined. The test was conducted in duplicate. The insecticidal rate and the food intake of a control plot were examined in the same way as in Test Example 1 except that the emulsion (I) was changed to the emulsion (II).

Aphis craccivora = assay: Test of Efficacy on Aphis craccivora (spray on black-eyed peas); details: 96 h, read-out: insecticidal rate
Description: 5 parts of the heteroaryl azole compound of the present invention, 93.6 parts of dimethylformamide, and 1.4 parts of polyoxyethylene alkyl aryl ether were mixed and dissolved to prepare emulsion (I) containing 5% of the active ingredient.
An insecticidal rate was calculated according to the following expression: Insecticidal rate (%)=(The number of dead insects/The number of tested insects)×100
Seedlings of black-eyed peas were raised in 10-cm pots. Aphis craccivora nymphs were inoculated onto primary leaves. The emulsion (I) was diluted with water such that the concentration of the compound of the present invention was 125 ppm. The dilution was sprayed to the black-eyed peas parasitized by the Aphis craccivora nymphs. The black-eyed peas were placed in a thermostat chamber having a temperature of 25° C. and a humidity of 60%. Life and death of Aphis craccivora were determined after 4 days from the spraying, and the insecticidal rate was calculated. The test was conducted in duplicate.

Plutella xylostella = assay: Test of Efficacy on Plutella xylostella (cabbage leaf dip); details: foliar, 72 h, cabbage leaves dipped 30 seconds, second instar larvae, after 3 days, read-out: insecticidal rate
Description: 5 parts of the heteroaryl azole compound of the present invention, 93.6 parts of dimethylformamide, and 1.4 parts of polyoxyethylene alkyl aryl ether were mixed and dissolved to prepare emulsion (I) containing 5% of the active ingredient. An insecticidal rate was calculated according to the following expression: Insecticidal rate (%)=(The number of dead insects/The number of tested insects)×100 The emulsion (I) was diluted with water such that the concentration of the compound of the present invention was 125 ppm. Cabbage leaves were dipped in the dilution for 30 seconds. The resulting cabbage leaves were placed in a petri dish. Five second instar larvae of Plutella xylostella were released thereto. The petri dish was placed in a thermostat chamber having a temperature of 25° C. and a humidity of 60%. Life and death were determined after 3 days from the release of the insects, and the insecticidal rate was calculated. The test was conducted in duplicate.

[1] = 125 ppm, sprayed to black-eyed peas, nymphs, after 4 days

Compound | insecticidal rate or food intake as compared with the control plot (Mythimna separata) | pest or weed control at 125 ppm (Aphis craccivora; [1]) [%] | pest or weed control at 125 ppm (Aphis craccivora) [%] | pest or weed control at 125 ppm (Plutella xylostella) [%]
CCS(=O)(=O)c1cc(C(F)(F)F)cnc1-c1ncn(/C=C(\F)C(F)(F)C(F)(F)F)c1C [a-4] | insecticidal rate of 100% for Mythimna separata or a food intake of 10% or less as compared with the control plot |  |  | 
CCS(=O)(=O)c1cc(C(F)(F)F)cnc1-c1ncn(CC(F)(F)C(F)(F)C(F)(F)F)c1C [a-5] | insecticidal rate of 100% for Mythimna separata or a food intake of 10% or less as compared with the control plot |  |  | 
CCS(=O)(=O)c1cc(C2CC2)cnc1-c1ncn(/C=C(\F)C(F)(F)F)c1C [a-14] | insecticidal rate of 100% for Mythimna separata or a food intake of 10% or less as compared with the control plot |  |  | 
CCS(=O)(=O)c1cc(-c2ncccn2)cnc1-c1ncn(CC(F)(F)C(F)(F)C(F)(F)C(F)F)c1C [a-15] | insecticidal rate of 100% for Mythimna separata or a food intake of 10% or less as compared with the control plot |  |  | 
CCS(=O)(=O)c1cc(-c2cc(F)cc(F)c2)cnc1-c1ncn(/C=C(\F)C(F)(F)C(F)(F)F)n1 [b-3] | insecticidal rate of 100% for Mythimna separata or a food intake of 10% or less as compared with the control plot |  |  | 
CCS(=O)(=O)c1cc(C2CC2)cnc1-c1ncn(/C=C(\F)C(F)(F)C(F)(F)F)n1 [b-10] | insecticidal rate of 100% for Mythimna separata or a food intake of 10% or less as compared with the control plot |  |  | 
CCS(=O)(=O)c1cc(-c2ncccn2)cnc1-c1ncn(/C=C(\F)C(F)(F)C(F)(F)F)n1 [b-12] | insecticidal rate of 100% for Mythimna separata or a food intake of 10% or less as compared with the control plot |  |  | 
CCS(=O)(=O)c1cc(Br)cnc1-c1ncn(/C=C(\F)C(F)(F)C(F)(F)C(F)F)n1 [b-20] | insecticidal rate of 100% for Mythimna separata or a food intake of 10% or less as compared with the control plot |  |  | 
CCS(=O)(=O)c1cc(C2(C)CC2)cnc1-c1ncn(/C=C(\F)C(F)(F)C(F)(F)C(F)(F)F)n1 [b-22] | insecticidal rate of 100% for Mythimna separata or a food intake of 10% or less as compared with the control plot |  |  | 
CCS(=O)(=O)c1cc(-c2ccccn2)cnc1-c1ncn(CC(F)(F)C(F)(F)F)c1C [c-1, 5′-(ethylsulfonyl)-6′-(5-methyl-1-(2,2,3,3,3-pentafluoropropyl)-1H-imidazol-4-yl)-2,3′-bipyridine] | insecticidal rate of 100% for Mythimna separata or a food intake of 10% or less as compared with the control plot | ≥ 80 |  | 
CCS(=O)(=O)c1cc(-c2ncccn2)cnc1-c1ncn(CC(F)(F)C(F)(F)F)c1C [c-2] | insecticidal rate of 100% for Mythimna separata or a food intake of 10% or less as compared with the control plot | ≥ 80 |  | 
CCS(=O)(=O)c1cc(C2CC2)cnc1-c1ncn(CC(F)(F)C(F)(F)F)c1C [c-3] |  | ≥ 80 |  | 
CCS(=O)(=O)c1cc(Br)cnc1-c1ncn(CC(F)(F)C(F)(F)F)c1C [c-4] |  | ≥ 80 |  | 
CCS(=O)(=O)c1cc(C2CC2)cnc1-c1ncn(CC(F)(F)C(F)(F)C(F)(F)F)c1C [c-6] | insecticidal rate of 100% for Mythimna separata or a food intake of 10% or less as compared with the control plot | ≥ 80 |  | 
CCS(=O)(=O)c1cc(Br)cnc1-c1ncn(CC(F)(F)C(F)(F)C(F)(F)F)c1C [c-7] |  |  | ≥ 80 | 
CCS(=O)(=O)c1ccc(-n2cncn2)nc1-c1ncn(-c2ccc(C(F)(F)F)cn2)n1 [d-3] | insecticidal rate of 100% for Mythimna separata or a food intake of 10% or less as compared with the control plot | ≥ 80 |  | 
CCS(=O)(=O)c1cc(C2CC2)cnc1-c1ncn(-c2ccc(C(F)(F)F)cn2)n1 [d-4, 5-cyclopropyl-3-(ethylsulfonyl)-2-(1-(5-(trifluoromethyl)pyridin-2-yl)-1H-1,2,4-triazol-3-yl)pyridine] | insecticidal rate of 100% for Mythimna separata or a food intake of 10% or less as compared with the control plot | ≥ 80 |  | ≥ 80
CCS(=O)(=O)c1cc(-c2ncccn2)cnc1-c1ncn(-c2ccc(C(F)(F)F)cn2)n1 [d-5] | insecticidal rate of 100% for Mythimna separata or a food intake of 10% or less as compared with the control plot |  |  | ≥ 80
CCS(=O)(=O)c1cc(C2CC2)cnc1-c1ncn(-c2ccc(SC(F)(F)F)cc2)n1 [d-9] | insecticidal rate of 100% for Mythimna separata or a food intake of 10% or less as compared with the control plot |  |  | 
CCS(=O)(=O)c1ccc(Cl)nc1-c1ncn(-c2ccc(OC(F)(F)F)cc2)n1 [d-10] | insecticidal rate of 100% for Mythimna separata or a food intake of 10% or less as compared with the control plot | ≥ 80 |  | 
CCS(=O)(=O)c1ccc(-n2cncn2)nc1-c1ncn(-c2ccc(OC(F)(F)F)cc2)n1 [d-11] | insecticidal rate of 100% for Mythimna separata or a food intake of 10% or less as compared with the control plot | ≥ 80 |  | 
C=C(C)c1cnc(-c2ncn(-c3ccc(OC(F)(F)F)cc3)n2)c(S(=O)(=O)CC)c1 [d-13] | insecticidal rate of 100% for Mythimna separata or a food intake of 10% or less as compared with the control plot |  |  | 
CCS(=O)(=O)c1cc(C2(C)CC2)cnc1-c1ncn(-c2ccc(OC(F)(F)F)cc2)n1 [d-14] | insecticidal rate of 100% for Mythimna separata or a food intake of 10% or less as compared with the control plot | ≥ 80 |  | 
CCS(=O)(=O)c1cc(C2CC2)cnc1-c1ncn(-c2ccc(OC(F)(F)C(F)F)cc2)n1 [d-15] | insecticidal rate of 100% for Mythimna separata or a food intake of 10% or less as compared with the control plot |  |  | ≥ 80
CCS(=O)(=O)c1cc(-c2ccccn2)cnc1-c1ncn(-c2ccc(OC(F)(F)C(F)F)cc2)n1 [d-16] | insecticidal rate of 100% for Mythimna separata or a food intake of 10% or less as compared with the control plot | ≥ 80 |  | ≥ 80
CCS(=O)(=O)c1cnc(-c2ncccn2)nc1-c1ncn(-c2ccc(C(F)(F)C(F)(F)F)cc2)n1 [d-18] |  | ≥ 80 |  | 
CCS(=O)(=O)c1ccc(S(=O)(=O)CC)c(-c2cn(-c3ccc(OC(F)(F)F)cc3)cn2)n1 [d-21] |  | ≥ 80 |  | 
CCS(=O)(=O)c1cc(-c2ccccn2)cnc1-c1ncn(-c2ccc(OC(F)(F)F)cc2)c1Br [d-23] |  |  |  | ≥ 80
CCS(=O)(=O)c1ccc(-n2cncn2)nc1-c1cn(-c2ccc(OC(F)(F)F)cc2)cn1 [d-24] | insecticidal rate of 100% for Mythimna separata or a food intake of 10% or less as compared with the control plot | ≥ 80 |  | ≥ 80
